As a reminder, the IC50 is the midpoint of a concentration-inhibition curve.

Nine compounds from US10428080B2, “TBK/IKK inhibitor compounds and uses thereof” (Merck Patent GmbH, priority 2015, dated 2019) can be followed below.

Molecules are shown by their SMILES. Counter-ions that a name gives are not always drawn. Like-named read-outs stand apart in the source and are kept apart here.

The test system of assay [1] is phosphorylation of the IRF-3 protein in MDA-MB-468 cells. As to the kind of experiment: pIRF3 immunocytochemistry cell based assay. Particulars: Homo sapiens. In a few lines: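 After 2 h stimulation with Poly(I:C) (10 ug/ml), following 1 h compound pre-treatment (10-point, 3-fold dilution, top 10 uM), MDA-MB-468 cells were fixed and stained with anti-pIRF3 antibody. pIRF3 fluorescence was normalized to PI staining or cell count on an Acumen cytometer. IC50 curves were derived from this.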

The target in another assay is T1, IKKε (Homo sapiens, UniProt Q14164).
T1 sequence (Q14164 1-716): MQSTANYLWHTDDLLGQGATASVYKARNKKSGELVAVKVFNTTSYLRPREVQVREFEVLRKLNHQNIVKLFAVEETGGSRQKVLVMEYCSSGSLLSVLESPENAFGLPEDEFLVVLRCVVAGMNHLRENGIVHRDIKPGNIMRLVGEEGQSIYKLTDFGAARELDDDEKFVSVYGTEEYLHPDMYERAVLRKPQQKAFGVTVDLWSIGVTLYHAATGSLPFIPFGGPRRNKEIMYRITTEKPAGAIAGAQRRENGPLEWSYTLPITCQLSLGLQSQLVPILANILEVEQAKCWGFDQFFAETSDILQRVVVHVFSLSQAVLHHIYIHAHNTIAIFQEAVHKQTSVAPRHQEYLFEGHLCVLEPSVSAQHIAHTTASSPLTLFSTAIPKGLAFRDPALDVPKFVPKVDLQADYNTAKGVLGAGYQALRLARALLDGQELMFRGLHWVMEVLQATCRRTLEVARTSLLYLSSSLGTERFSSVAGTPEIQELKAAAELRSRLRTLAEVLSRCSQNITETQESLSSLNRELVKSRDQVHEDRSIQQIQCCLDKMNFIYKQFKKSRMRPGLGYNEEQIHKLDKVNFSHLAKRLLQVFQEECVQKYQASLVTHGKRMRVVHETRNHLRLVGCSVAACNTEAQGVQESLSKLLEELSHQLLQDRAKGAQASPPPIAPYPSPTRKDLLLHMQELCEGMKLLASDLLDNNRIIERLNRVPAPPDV
Nature of the assay: IKKe Biochemical Assay. Particulars: read-out: IKKε IC50. In a few lines:
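Activity was measured as mobility-shift separation of phosphorylated from unphosphorylated substrate on a LabChip EZ Reader. Compound was titrated from 30 uM final in 10 points, 1:4 steps, with 1% DMSO, and enzyme plus substrate reacted 90 min at 25° C before stop buffer. Control wells held 10 uM staurosporine.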

Another assay addresses T2, TBK1 (Homo sapiens, UniProt Q9UHD2).
T2 sequence (Q9UHD2 1-729): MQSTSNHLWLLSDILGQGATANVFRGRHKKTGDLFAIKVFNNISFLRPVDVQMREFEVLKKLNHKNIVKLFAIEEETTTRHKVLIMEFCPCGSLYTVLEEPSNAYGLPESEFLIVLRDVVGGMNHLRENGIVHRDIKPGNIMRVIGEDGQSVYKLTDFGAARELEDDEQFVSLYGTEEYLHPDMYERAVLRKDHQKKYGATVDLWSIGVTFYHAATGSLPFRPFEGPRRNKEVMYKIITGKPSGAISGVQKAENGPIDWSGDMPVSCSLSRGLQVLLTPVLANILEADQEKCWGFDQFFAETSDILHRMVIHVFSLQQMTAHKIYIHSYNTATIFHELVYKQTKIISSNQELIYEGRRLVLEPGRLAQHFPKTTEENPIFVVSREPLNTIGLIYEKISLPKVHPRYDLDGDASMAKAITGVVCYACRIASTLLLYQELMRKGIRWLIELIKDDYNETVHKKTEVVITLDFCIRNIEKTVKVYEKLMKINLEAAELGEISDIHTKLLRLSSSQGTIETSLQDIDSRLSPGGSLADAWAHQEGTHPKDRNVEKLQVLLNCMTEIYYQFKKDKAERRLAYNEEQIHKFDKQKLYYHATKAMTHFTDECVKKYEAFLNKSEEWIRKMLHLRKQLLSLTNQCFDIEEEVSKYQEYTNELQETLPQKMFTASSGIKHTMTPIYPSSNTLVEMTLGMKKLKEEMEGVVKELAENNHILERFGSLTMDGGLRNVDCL
As to the kind of experiment: TBK Biochemical Assay. Particulars: read-out: TBK1 IC50. In a few lines: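 Caliper LabChip mobility-shift readout of substrate and product after 90 min of TBK1 reaction at 25° C and stop-buffer addition. Compounds tested in 1:4 serial dilution over 10 points from 30 uM final at 1% DMSO; staurosporine 10 uM final defines full inhibition.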

The mark [2] stands for this setting: MDA-MB-468 cells, Poly(I:C) stimulation, read-out: pIRF3 IC50.
[3] abbreviates: MDA-MB-468, read-out: pIRF3 IC50.

On to `COc1cc(-c2cc3nccc(-c4ccc(NC5CCOCC5)c(C#N)c4)c3o2)cnc1C(=O)N(C)C` [Compound 394, 5-(7-[3-cyano-4-[(oxan-4-yl)amino]phenyl]furo[3,2-b]pyridin-2-yl)-3-methoxy-N,N-dimethylpyridine-2-carboxamide], for which the figures for the IC50 (in assay [1] (setting [2]); on IKKε; on TBK1) were 1000 to 5000 nM, 100 to 1000 nM and 100 to 1000 nM, respectively.

Turning to `COc1cc(C(=O)N(C)C)nnc1-c1cc2nccc(-c3ccc(OC4CCOCC4)c(C#N)c3)c2o1` [Compound 395, 6-[7-[3-cyano-4-(oxan-4-yloxy)phenyl]furo[3,2-b]pyridin-2-yl]-5-methoxy-N,N-dimethylpyridazine-3-carboxamide], the figures for the IC50 (in assay [1] (setting [2]); at IKKε; on TBK1) were 100 to 1000 nM, below 100 nM and below 100 nM, respectively.

Consider `COc1cc(C(=O)N[C@H]2[C@@H]3C[C@H]2CN(C)C3)cnc1-c1cc2nccc(-c3ccc(OC4CCOCC4)c(C#N)c3)c2o1` [Compound 397, 6-{7-[3-Cyano-4-(tetrahydro-pyran-4-yloxy)-phenyl]-furo[3,2-b]pyridin-2-yl}-5-methoxy-N-((1S,5R,6R)-3-methyl-3-aza-bicyclo[3.10.1]hept-6-yl)-nicotinamide], for which the concentration for half-maximal inhibition (IC50) (in assay [1] (setting [2]); at IKKε; at TBK1) was below 100 nM throughout.

Take `COc1cc(C(=O)N[C@@H]2[C@@H]3C[C@H]2CN(C)C3)cnc1-c1cc2nccc(-c3ccc(OC4CCOCC4)c(C#N)c3)c2o1` [Compound 398, 6-{7-[3-Cyano-4-(tetrahydro-pyran-4-yloxy)-phenyl]-furo[3,2-b]pyridin-2-yl}-5-methoxy-N-((1R,5S,6S)-3-methyl-3-aza-bicyclo[3.10.1]hept-6-yl)-nicotinamide]: the IC50 (in assay [1] (setting [2]); at IKKε; at TBK1) was below 100 nM throughout.

Take `CN(C)C(=O)c1cc(-c2cc3nccc(-c4ccc(OC5CCOCC5)c(C#N)c4)c3o2)n(C)c1` [Compound 400, 5-[7-[3-cyano-4-(oxan-4-yloxy)phenyl]furo[3,2-b]pyridin-2-yl]-N,N,1-trimethyl-1H-pyrrole-3-carboxamide]: the IC50 was 100 to 1000 nM in assay [1] (setting [3]), below 100 nM at IKKε and below 100 nM at TBK1.

Consider `COc1c(C(=O)N(C)C)nn(C)c1-c1cc2nccc(-c3ccc(OC4CCOCC4)c(C#N)c3)c2o1` [Compound 401, 5-[7-[3-cyano-4-(oxan-4-yloxy)phenyl]furo[3,2-b]pyridin-2-yl]-4-methoxy-N,N,1-trimethyl-1H-pyrazole-3-carboxamide hydrochloride], for which the IC50 in assay [1] (setting [3]) is 100 to 1000 nM; at IKKε it was below 100 nM; at TBK1, below 100 nM.

In the case of `COc1cc(C(=O)N(C)C)n(C)c1-c1cc2nccc(-c3ccc(OC4CCOCC4)c(C#N)c3)c2o1` [Compound 402, 5-[7-[3-cyano-4-(oxan-4-yloxy)phenyl]furo[3,2-b]pyridin-2-yl]-4-methoxy-N,N,1-trimethyl-1H-pyrrole-2-carboxamide], the IC50 (in assay [1] (setting [2]); at IKKε; on TBK1) was below 100 nM each time.

`COc1cc(C(=O)N(C)C)cnc1-c1cc2nccc(-c3ccc(OC4CCNCC4(F)F)c(C#N)c3)c2o1` (stereo not drawn) [Compound 403, 6-(7-[3-cyano-4-[(3,3-difluoropiperidin-4-yl)oxy]phenyl]furo[3,2-b]pyridin-2-yl)-5-methoxy-N,N-dimethylpyridine-3-carboxamide]: the IC50 is 100 to 1000 nM in assay [1] (setting [2]), below 100 nM on IKKε and below 100 nM on TBK1.

As to `COc1cc(C(=O)N(C)C)cnc1-c1cc2nccc(-c3ccc(OC4CCN(C)CC4(F)F)c(C#N)c3)c2o1` (stereo not drawn) [Compound 404, 6-(7-[3-cyano-4-[(3,3-difluoro-1-methylpiperidin-4-yl)oxy]phenyl]furo[3,2-b]pyridin-2-yl)-5-methoxy-N,N-dimethylpyridine-3-carboxamide], the half-maximal inhibitory concentration (IC50) in assay [1] (setting [2]) was 100 to 1000 nM; at IKKε, below 100 nM; at TBK1, below 100 nM.
